According to patent publication US10428080B2, “TBK/IKK inhibitor compounds and uses thereof” (Merck Patent GmbH, priority 2015, dated 2019):
Structures can show the parent of a compound that is named as a salt. Where two headings read alike, the source gives them in different places.

Tests used:
IKKε = biological target: T1, IKKε (Homo sapiens, UniProt Q14164); assay: IKKe Biochemical Assay
T1 sequence (Q14164 1-716): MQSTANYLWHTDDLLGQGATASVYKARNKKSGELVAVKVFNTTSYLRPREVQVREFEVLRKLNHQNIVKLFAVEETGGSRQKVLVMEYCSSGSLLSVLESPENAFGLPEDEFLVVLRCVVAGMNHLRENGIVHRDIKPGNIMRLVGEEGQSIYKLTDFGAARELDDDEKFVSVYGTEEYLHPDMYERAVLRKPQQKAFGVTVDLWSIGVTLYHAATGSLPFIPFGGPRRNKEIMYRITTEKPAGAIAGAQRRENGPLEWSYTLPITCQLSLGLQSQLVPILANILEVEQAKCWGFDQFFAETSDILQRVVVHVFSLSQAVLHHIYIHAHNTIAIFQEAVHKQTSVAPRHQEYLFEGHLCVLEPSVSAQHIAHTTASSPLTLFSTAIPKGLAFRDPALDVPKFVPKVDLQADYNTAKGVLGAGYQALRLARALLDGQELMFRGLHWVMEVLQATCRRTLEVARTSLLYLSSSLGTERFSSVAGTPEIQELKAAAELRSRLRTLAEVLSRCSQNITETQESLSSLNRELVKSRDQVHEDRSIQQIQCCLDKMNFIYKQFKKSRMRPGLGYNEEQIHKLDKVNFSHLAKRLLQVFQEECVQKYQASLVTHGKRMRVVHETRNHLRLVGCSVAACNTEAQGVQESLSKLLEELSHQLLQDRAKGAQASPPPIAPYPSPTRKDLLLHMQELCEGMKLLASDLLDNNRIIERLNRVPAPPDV
How it was run: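 Activity was measured as mobility-shift separation of phosphorylated from unphosphorylated substrate on a LabChip EZ Reader. Compound was titrated from 30 uM final in 10 points, 1:4 steps, with 1% DMSO, and enzyme plus substrate reacted 90 min at 25° C before stop buffer. Control wells held 10 uM staurosporine.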

[1] = tested on: phosphorylation of the IRF-3 protein in MDA-MB-468 cells; assay: pIRF3 immunocytochemistry cell based assay; details: Homo sapiens
How it was run: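 After 2 h stimulation with Poly(I:C) (10 ug/ml), following 1 h compound pre-treatment (10-point, 3-fold dilution, top 10 uM), MDA-MB-468 cells were fixed and stained with anti-pIRF3 antibody. pIRF3 fluorescence was normalized to PI staining or cell count on an Acumen cytometer. IC50 curves were derived from this.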

TBK1 = biological target: T2, TBK1 (Homo sapiens, UniProt Q9UHD2); assay: TBK Biochemical Assay
T2 sequence (Q9UHD2 1-729): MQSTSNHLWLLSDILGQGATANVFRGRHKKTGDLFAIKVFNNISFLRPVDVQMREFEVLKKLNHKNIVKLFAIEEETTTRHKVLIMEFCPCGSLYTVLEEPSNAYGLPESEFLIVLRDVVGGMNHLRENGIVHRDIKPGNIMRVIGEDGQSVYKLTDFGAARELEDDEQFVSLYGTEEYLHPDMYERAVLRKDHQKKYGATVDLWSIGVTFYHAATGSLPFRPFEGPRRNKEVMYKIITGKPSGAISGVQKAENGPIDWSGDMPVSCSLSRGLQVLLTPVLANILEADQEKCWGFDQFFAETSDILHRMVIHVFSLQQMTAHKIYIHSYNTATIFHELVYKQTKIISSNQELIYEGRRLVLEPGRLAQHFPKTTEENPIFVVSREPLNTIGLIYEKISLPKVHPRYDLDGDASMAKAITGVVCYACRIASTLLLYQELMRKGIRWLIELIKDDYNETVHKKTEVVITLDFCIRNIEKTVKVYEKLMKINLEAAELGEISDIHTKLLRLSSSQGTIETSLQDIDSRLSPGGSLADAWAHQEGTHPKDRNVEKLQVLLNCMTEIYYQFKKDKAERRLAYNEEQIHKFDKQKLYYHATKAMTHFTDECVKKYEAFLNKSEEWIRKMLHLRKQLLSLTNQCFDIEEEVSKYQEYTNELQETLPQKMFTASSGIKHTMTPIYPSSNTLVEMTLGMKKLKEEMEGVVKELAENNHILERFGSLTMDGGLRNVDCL
How it was run: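 Caliper LabChip mobility-shift readout of substrate and product after 90 min of TBK1 reaction at 25° C and stop-buffer addition. Compounds tested in 1:4 serial dilution over 10 points from 30 uM final at 1% DMSO; staurosporine 10 uM final defines full inhibition.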

[2] = MDA-MB-468 cells, Poly(I:C) stimulation, read-out: pIRF3 IC50

SMILES: COc1cc(C(=O)NCC2CCNCC2)ccc1-c1cc2nccc(-c3ccc(OC4CCOCC4)c(C#N)c3)c2o1 [Compound 92, 4-{7-[3-Cyano-4-(tetrahydro-pyran-4-yloxy)-phenyl]-furo[3,2-b]pyridin-2-yl}-3-methoxy-N-piperidin-4-ylmethyl-benzamide hydrochloride]
- IC50 (IKKε; read-out: IKKε IC50): < 100 nM
- IC50 [1, 2]: 100 to 1000 nM
- IC50 (TBK1; read-out: TBK1 IC50): < 100 nM

SMILES: COc1cc(C(=O)N(C)C)ccc1-c1cc2nccc(-c3ccc(OCC4CCOC4)c(C#N)c3)c2o1 (stereo not drawn) [Compound 93, 4-{7-[3-Cyano-4-(tetrahydro-furan-3-ylmethoxy)-phenyl]-furo[3,2-b]pyridin-2-yl}-3-methoxy-N,N-dimethyl-benzamide]
- IC50 (IKKε; read-out: IKKε IC50): < 100 nM
- IC50 [1, 2]: 100 to 1000 nM
- IC50 (TBK1; read-out: TBK1 IC50): < 100 nM

SMILES: COc1cc(C(=O)NC2CNCC(F)(F)C2)ccc1-c1cc2nccc(-c3ccc(OC4CCOCC4)c(C#N)c3)c2o1 (stereo not drawn) [Compound 98, 4-{7-[3-Cyano-4-(tetrahydro-pyran-4-yloxy)-phenyl]-furo[3,2-b]pyridin-2-yl}-N-(5,5-difluoro-piperidin-3-yl)-3-methoxy-benzamide hydrochloride]
- IC50 (IKKε; read-out: IKKε IC50): < 100 nM
- IC50 [1, 2]: 100 to 1000 nM
- IC50 (TBK1; read-out: TBK1 IC50): < 100 nM

SMILES: COc1cc(C(=O)N2CC(O)C2)ccc1-c1cc2nccc(-c3ccc(NC4CCOCC4)c(C#N)c3)c2o1 [Compound 101, 5-{2-[4-(3-Hydroxy-azetidine-1-carbonyl)-2-methoxy-phenyl]-furo[3,2-b]pyridin-7-yl}-2-(tetrahydro-pyran-4-ylamino)-benzonitrile]
- IC50 (IKKε; read-out: IKKε IC50): < 100 nM
- IC50 [1, 2]: 100 to 1000 nM
- IC50 (TBK1; read-out: TBK1 IC50): < 100 nM

SMILES: COc1cc(C(=O)N2CCC(O)C2)ccc1-c1cc2nccc(-c3ccc(NC4CCOCC4)c(C#N)c3)c2o1 (stereo not drawn) [Compound 104, 5-{2-[4-(3-Hydroxy-pyrrolidine-1-carbonyl)-2-methoxy-phenyl]-furo[3,2-b]pyridin-7-yl}-2-(tetrahydro-pyran-4-ylamino)-benzonitrile]
- IC50 (IKKε; read-out: IKKε IC50): < 100 nM
- IC50 [1, 2]: 100 to 1000 nM
- IC50 (TBK1; read-out: TBK1 IC50): < 100 nM

SMILES: COc1cc(C(=O)N(C)C)ccc1-c1cc2nccc(-c3ccc(OC4CCCOC4)c(C#N)c3)c2o1 (stereo not drawn) [Compound 105, 4-{7-[3-Cyano-4-(tetrahydro-pyran-3-yloxy)-phenyl]-furo[3,2-b]pyridin-2-yl}-3-methoxy-N,N-dimethyl-benzamide]
- IC50 (IKKε; read-out: IKKε IC50): < 100 nM
- IC50 [1, 2]: 100 to 1000 nM
- IC50 (TBK1; read-out: TBK1 IC50): < 100 nM

SMILES: CN(C)C(=O)c1ccc(-c2cc3nccc(-c4ccc(N5CC[C@H](F)C5)c(C#N)c4)c3o2)cc1 [Compound 106, 4-{7-[3-Cyano-4-((S)-3-fluoro-pyrrolidin-1-yl)-phenyl]-furo[3,2-b]pyridin-2-yl}-N,N-dimethyl-benzamide]
- IC50 (IKKε; read-out: IKKε IC50): < 100 nM
- IC50 [1, 2]: 100 to 1000 nM
- IC50 (TBK1; read-out: TBK1 IC50): < 100 nM

SMILES: COc1cc(C(=O)N(C)C)ccc1-c1cc2nccc(-c3ccc(OC4CCNC4)c(C#N)c3)c2o1 (stereo not drawn) [Compound 108, 4-{7-[3-Cyano-4-(pyrrolidin-3-yloxy)-phenyl]-furo[3,2-b]pyridin-2-yl}-3-methoxy-N,N-dimethyl-benzamide]
- IC50 (IKKε; read-out: IKKε IC50): < 100 nM
- IC50 [1, 2]: < 100 nM
- IC50 (TBK1; read-out: TBK1 IC50): < 100 nM

SMILES: COc1cc(C(=O)N(C)C)ccc1-c1cc2nccc(-c3cnc(OC4CCOCC4)c(C#N)c3)c2o1 [Compound 109, 4-{7-[5-Cyano-6-(tetrahydro-pyran-4-yloxy)-pyridin-3-yl]-furo[3,2-b]pyridin-2-yl}-3-methoxy-N,N-dimethyl-benzamide]
- IC50 (IKKε; read-out: IKKε IC50): < 100 nM
- IC50 [1, 2]: 100 to 1000 nM
- IC50 (TBK1; read-out: TBK1 IC50): < 100 nM

SMILES: COc1cc(C(=O)NN)ccc1-c1cc2nccc(-c3ccc(OC4CCOCC4)c(C#N)c3)c2o1 [Compound 110, 4-{7-[3-Cyano-4-(tetrahydro-pyran-4-yloxy)-phenyl]-furo[3,2-b]pyridin-2-yl}-3-methoxy-benzoic acid hydrazide]
- IC50 (IKKε; read-out: IKKε IC50): < 100 nM
- IC50 [1, 2]: 100 to 1000 nM
- IC50 (TBK1; read-out: TBK1 IC50): < 100 nM

SMILES: COc1cc(C(=O)NCC(O)CO)ccc1-c1cc2nccc(-c3ccc(NC4CCOCC4)c(C#N)c3)c2o1 (stereo not drawn) [Compound 111, 4-{7-[3-Cyano-4-(tetrahydro-pyran-4-ylamino)-phenyl]-furo[3,2-b]pyridin-2-yl}-N-(2,3-dihydroxy-propyl)-3-methoxy-benzamide]
- IC50 (IKKε; read-out: IKKε IC50): < 100 nM
- IC50 [1, 2]: 100 to 1000 nM
- IC50 (TBK1; read-out: TBK1 IC50): < 100 nM

SMILES: COc1cc(C(=O)N(C)C)ccc1-c1cc2nccc(-c3ccc(OC4CCN(C(C)=O)CC4)c(C#N)c3)c2o1 [Compound 112, 4-{7-[4-(1-Acetyl-piperidin-4-yloxy)-3-cyano-phenyl]-furo[3,2-b]pyridin-2-yl}-3-methoxy-N,N-dimethyl-benzamide]
- IC50 (IKKε; read-out: IKKε IC50): < 100 nM
- IC50 [1, 2]: 100 to 1000 nM
- IC50 (TBK1; read-out: TBK1 IC50): < 100 nM

SMILES: CC(C)N1CCN(C(=O)c2ccc(-c3cc4nccc(-c5ccc(OC6CCOCC6)c(C#N)c5)c4o3)cc2)CC1 [Compound 116, 5-{2-[4-(4-Isopropyl-piperazine-1-carbonyl)-phenyl]-furo[3,2-b]pyridin-7-yl}-2-(tetrahydro-pyran-4-yloxy)-benzonitrile]
- IC50 (IKKε; read-out: IKKε IC50): < 100 nM
- IC50 [1, 2]: 100 to 1000 nM
- IC50 (TBK1; read-out: TBK1 IC50): < 100 nM

SMILES: COc1cc(C(=O)NC2CCOC2)ccc1-c1cc2nccc(-c3ccc(NC4CCOCC4)c(C#N)c3)c2o1 (stereo not drawn) [Compound 117, 4-{7-[3-Cyano-4-(tetrahydro-pyran-4-ylamino)-phenyl]-furo[3,2-b]pyridin-2-yl}-3-methoxy-N-(tetrahydro-furan-3-yl)-benzamide]
- IC50 (IKKε; read-out: IKKε IC50): < 100 nM
- IC50 [1, 2]: 100 to 1000 nM
- IC50 (TBK1; read-out: TBK1 IC50): < 100 nM

SMILES: COc1cc(C(=O)NCCC2CCNCC2)ccc1-c1cc2nccc(-c3ccc(OC4CCOCC4)c(C#N)c3)c2o1 [Compound 118, 4-{7-[3-Cyano-4-(tetrahydro-pyran-4-yloxy)-phenyl]-furo[3,2-b]pyridin-2-yl}-3-methoxy-N-(2-piperidin-4-yl-ethyl)-benzamide hydrochloride]
- IC50 (IKKε; read-out: IKKε IC50): < 100 nM
- IC50 [1, 2]: 100 to 1000 nM
- IC50 (TBK1; read-out: TBK1 IC50): < 100 nM

SMILES: COc1cc(C(=O)NC2CN3CCC2CC3)ccc1-c1cc2nccc(-c3ccc(NC4C5COCC54)c(C#N)c3)c2o1 (stereo not drawn) [Compound 119, N-(1-Aza-bicyclo[2.2.2]oct-3-yl)-4-{7-[3-cyano-4-(3-oxa-bicyclo[3.1.0]hex-6-ylamino)-phenyl]-furo[3,2-b]pyridin-2-yl}-3-methoxy-benzamide]
- IC50 (IKKε): < 100 nM
- IC50 ([1]; MDA-MB-468, read-out: pIRF3 IC50): < 100 nM
- IC50 (TBK1; TBK1 IC50): < 100 nM

SMILES: CN(C)C(=O)c1ccc(-c2cc3nccc(-c4ccc(N5CC[C@@H](F)C5)c(C#N)c4)c3o2)cc1 [Compound 120, 4-{7-[3-Cyano-4-((R)-3-fluoro-pyrrolidin-1-yl)-phenyl]-furo[3,2-b]pyridin-2-yl}-N,N-dimethyl-benzamide]
- IC50 (IKKε; read-out: IKKε IC50): < 100 nM
- IC50 [1, 2]: 100 to 1000 nM
- IC50 (TBK1; read-out: TBK1 IC50): < 100 nM

SMILES: COc1cc(C(=O)NC2CC(O)C2)ccc1-c1cc2nccc(-c3ccc(NC4CCOCC4)c(C#N)c3)c2o1 (stereo not drawn) [Compound 122, 4-{7-[3-Cyano-4-(tetrahydro-pyran-4-ylamino)-phenyl]-furo[3,2-b]pyridin-2-yl}-N-(3-hydroxy-cyclobutyl)-3-methoxy-benzamide]
- IC50 (IKKε; read-out: IKKε IC50): < 100 nM
- IC50 [1, 2]: 100 to 1000 nM
- IC50 (TBK1; read-out: TBK1 IC50): < 100 nM

SMILES: CN(C)C(=O)c1cccc(-c2cc3nccc(-c4ccc(OC5CCOCC5)c(C#N)c4)c3o2)c1 [Compound 123]
- IC50 (IKKε; read-out: IKKε IC50): < 100 nM
- IC50 [1, 2]: 1000 to 5000 nM
- IC50 (TBK1; read-out: TBK1 IC50): < 100 nM
